# Reference: patent US20250290117A1, “MOLECULAR PHENOTYPIC ANTIMICROBIAL SUSCEPTIBILITY TESTING” (priority 2024, published 2025)
# Assays:
# Format in all cases: cell-based
# Escherichia coli [1] = test: Traditional culture-based antimicrobial susceptibility test
# Method in brief: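 Susceptibility of each E. coli isolate to each antimicrobial was determined the standard way: pathogens were grown, isolated and then exposed to the agents.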
# [2] = system: pathogens of clinical samples; test: Molecular phenotypic antimicrobial susceptibility test of clinical samples, extraction DNA purification step prior to PCR (Table 6)
# Method in brief: (§1)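 For direct PCR, exposed cultures are lysed in buffer in the thermal cycler, whereas purified runs first isolate DNA with magnetic beads. Pathogen-specific or universal targets are amplified semi-quantitatively after 12-16 h of antimicrobial exposure in Mueller Hinton Broth.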
# Escherichia coli [3] = test: Molecular phenotypic antimicrobial susceptibility test (extraction or DNA purification prior to PCR)
# Method in brief: as §1
# [4] = system: pathogens of clinical samples; test: Molecular phenotypic antimicrobial susceptibility test of clinical samples, direct PCR without a separate DNA purification step (Table 6)
# Method in brief: as §1
# [5] = E. coli, clinical sample of r10-r24
# [6] = E. coli, clinical sample of r158-r172
# [7] = K. aerogenes, clinical sample of r136-r150
# [8] = K. pneumoniae, clinical sample of r121-r135
# [9] = M. morganii, clinical sample of r55-r69
# [10] = M. morganii, clinical sample of r70-r84
# [11] = P. mirabilis, clinical sample of r25-r39
# [12] = P. mirabilis, clinical sample of r40-r54
# [13] = S. aureus, clinical sample of r85-r92
substance,measurement,setting,value
Gentamicin,Traditional Culture Results,Escherichia coli [1]; E. coli #1 - WDCM 00090 - 6.2×E3,Sensitive
same,Traditional Culture Results,Escherichia coli [1]; E. coli #2 - WDCM 00090 - 6.2×E3,Sensitive
same,Traditional Culture Result,Escherichia coli [1]; E. coli isolate 1 (Table 3),Sensitive
same,Traditional Culture Result,Escherichia coli [1]; E. coli isolate 2 (Table 3),Sensitive
same,Traditional Culture Result,Escherichia coli [1]; E. coli isolate 3 (Table 3),Sensitive
same,Traditional Culture Result,Escherichia coli [1]; E. coli isolate 4 (Table 3),Sensitive
same,Traditional Culture Result,Escherichia coli [1]; E. coli isolate 5 (Table 3),Sensitive
same,Traditional Culture Result,Escherichia coli [1]; E. coli isolate JJ1887,Resistant
same,Molecular Antibiotic Susceptibility Result,[2]; [5],Sensitive (Antimicrobial wells with pathogen load detected below the control wells (typically >2 cycle thresholds later) may be reported as Sensitive)
same,Ct,"[2]; E. coli, clinical sample of r10-r24, Ct Control Avg 18.112",28.366
same,Molecular Antibiotic Susceptibility Result,[2]; [6],Sensitive (Antimicrobial wells with pathogen load detected below the control wells (typically >2 cycle thresholds later) may be reported as Sensitive)
same,Ct,"[2]; E. coli, clinical sample of r158-r172, Ct Control Avg 20.146",32.759
same,Molecular Antibiotic Susceptibility Result,[2]; [7],Sensitive (Antimicrobial wells with pathogen load detected below the control wells (typically >2 cycle thresholds later) may be reported as Sensitive)
same,Ct,"[2]; K. aerogenes, clinical sample of r136-r150, Ct Control Avg 19.994",36.1
same,Molecular Antibiotic Susceptibility Result,[2]; [8],Sensitive (Antimicrobial wells with pathogen load detected below the control wells (typically >2 cycle thresholds later) may be reported as Sensitive)
same,Ct,"[2]; K. pneumoniae, clinical sample of r121-r135, Ct Control Avg 24.272",44.195
same,Molecular Antibiotic Susceptibility Result,[2]; [9],Sensitive (Antimicrobial wells with pathogen load detected below the control wells (typically >2 cycle thresholds later) may be reported as Sensitive)
same,Ct,"[2]; M. morganii, clinical sample of r55-r69, Ct Control Avg 28.86",Undet
same,Molecular Antibiotic Susceptibility Result,[2]; [10],Sensitive (Antimicrobial wells with pathogen load detected below the control wells (typically >2 cycle thresholds later) may be reported as Sensitive)
same,Ct,"[2]; M. morganii, clinical sample of r70-r84, Ct Control Avg 27.053",Undet
same,Molecular Antibiotic Susceptibility Result,[2]; [11],Sensitive (Antimicrobial wells with pathogen load detected below the control wells (typically >2 cycle thresholds later) may be reported as Sensitive)
same,Ct,"[2]; P. mirabilis, clinical sample of r25-r39, Ct Control Avg 26.064",28.953
same,Molecular Antibiotic Susceptibility Result,[2]; [12],Sensitive (Antimicrobial wells with pathogen load detected below the control wells (typically >2 cycle thresholds later) may be reported as Sensitive)
same,Ct,"[2]; P. mirabilis, clinical sample of r40-r54, Ct Control Avg 26.987",37.234
same,Molecular Antibiotic Susceptibility Result,[2]; [13],Sensitive (Antimicrobial wells with pathogen load detected below the control wells (typically >2 cycle thresholds later) may be reported as Sensitive)
same,Ct,"[2]; S. aureus, clinical sample of r85-r92, Ct Control Avg 24.32",Undet
same,Ct at Sensitive Breakpoint,"Escherichia coli [3]; E. coli isolate 1, Ct at control (average) 21.238",22.585
same,Molecular Antimicrobial Susceptibility Result,"Escherichia coli [3]; E. coli isolate 1, at sensitive breakpoint",Resistant
same,Ct at Sensitive Breakpoint,"Escherichia coli [3]; E. coli isolate 2, Ct at control (average) 21.270",24.165
same,Molecular Antimicrobial Susceptibility Result,"Escherichia coli [3]; E. coli isolate 2, at sensitive breakpoint",Sensitive (Antimicrobial wells with pathogen load detected below the control wells (typically >2 cycle thresholds later) may be reported as Sensitive)
same,Ct at Sensitive Breakpoint,"Escherichia coli [3]; E. coli isolate 3, Ct at control (average) 22.0995",25.112
same,Molecular Antimicrobial Susceptibility Result,"Escherichia coli [3]; E. coli isolate 3, at sensitive breakpoint",Sensitive (Antimicrobial wells with pathogen load detected below the control wells (typically >2 cycle thresholds later) may be reported as Sensitive)
same,Ct at Sensitive Breakpoint,"Escherichia coli [3]; E. coli isolate 4, Ct at control (average) 17.5733",22.64
same,Molecular Antimicrobial Susceptibility Result,"Escherichia coli [3]; E. coli isolate 4, at sensitive breakpoint",Sensitive (Antimicrobial wells with pathogen load detected below the control wells (typically >2 cycle thresholds later) may be reported as Sensitive)
same,Ct at Sensitive Breakpoint,"Escherichia coli [3]; E. coli isolate 5, Ct at control (average) 21.0933",25.77
same,Molecular Antimicrobial Susceptibility Result,"Escherichia coli [3]; E. coli isolate 5, at sensitive breakpoint",Sensitive (Antimicrobial wells with pathogen load detected below the control wells (typically >2 cycle thresholds later) may be reported as Sensitive)
same,Molecular Antibiotic Susceptibility Result,[4]; [5],Sensitive (Antimicrobial wells with pathogen load detected below the control wells (typically >2 cycle thresholds later) may be reported as Sensitive)
same,Ct,"[4]; E. coli, clinical sample of r10-r24, Ct control avg 12.97",23.559
same,Molecular Antibiotic Susceptibility Result,[4]; [6],Sensitive (Antimicrobial wells with pathogen load detected below the control wells (typically >2 cycle thresholds later) may be reported as Sensitive)
same,Ct,"[4]; E. coli, clinical sample of r158-r172, Ct control avg 12.894",28.667
same,Molecular Antibiotic Susceptibility Result,[4]; [7],Sensitive (Antimicrobial wells with pathogen load detected below the control wells (typically >2 cycle thresholds later) may be reported as Sensitive)
same,Ct,"[4]; K. aerogenes, clinical sample of r136-r150, Ct control avg 13.854",31.347
same,Molecular Antibiotic Susceptibility Result,[4]; [8],Sensitive (Antimicrobial wells with pathogen load detected below the control wells (typically >2 cycle thresholds later) may be reported as Sensitive)
same,Ct,"[4]; K. pneumoniae, clinical sample of r121-r135, Ct control avg […]",23.5
same,Molecular Antibiotic Susceptibility Result,[4]; [9],Sensitive (Antimicrobial wells with pathogen load detected below the control wells (typically >2 cycle thresholds later) may be reported as Sensitive)
same,Ct,"[4]; M. morganii, clinical sample of r55-r69, Ct control avg 12.09",32.648
same,Molecular Antibiotic Susceptibility Result,[4]; [10],Sensitive (Antimicrobial wells with pathogen load detected below the control wells (typically >2 cycle thresholds later) may be reported as Sensitive)
same,Ct,"[4]; M. morganii, clinical sample of r70-r84, Ct control avg 11.677",30.206
same,Molecular Antibiotic Susceptibility Result,[4]; [11],Sensitive (Antimicrobial wells with pathogen load detected below the control wells (typically >2 cycle thresholds later) may be reported as Sensitive)
same,Ct,"[4]; P. mirabilis, clinical sample of r25-r39, Ct control avg 11.801",22.67
same,Molecular Antibiotic Susceptibility Result,[4]; [12],Sensitive (Antimicrobial wells with pathogen load detected below the control wells (typically >2 cycle thresholds later) may be reported as Sensitive)
same,Ct,"[4]; P. mirabilis, clinical sample of r40-r54, Ct control avg 10.06",30.321
same,Molecular Antibiotic Susceptibility Result,[4]; [13],Sensitive (Antimicrobial wells with pathogen load detected below the control wells (typically >2 cycle thresholds later) may be reported as Sensitive)
same,Ct,"[4]; S. aureus, clinical sample of r85-r92, Ct control avg 20.309",31.422
